How the values were obtained:
CDK2/cyclin A = target: T1, CDK2/cyclin A (Homo sapiens, UniProt P24941); test: Inhibition of CDK2/cyclin A retinoblastoma kinase activity (Ki; % inhibition); format: biochemical; conditions: at 0.03 μM
T1 construct: made in house; host or cells: CDK2: insect cells (baculovirus); cyclin A: E. coli
Procedure, shortened: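 Apparent Ki values came from fitting concentration-dependent activity data to competitive (or competitive tight-binding) models, and % inhibition from single 30 nM screens of library compounds. Activity was measured as ³²P/³³P incorporation from 25 μM ATP into an Rb substrate by 10 or 19 nM CDK2/delta cyclin A at 30 °C over 60–75 min, pH 7.4.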

human CDK4/cyclin D3 = target: T2, human CDK4/cyclin D3 (Homo sapiens, UniProt P11802); test: Inhibition of CDK4/cyclin D retinoblastoma kinase activity (Ki; % inhibition); format: biochemical; conditions: at 0.03 μM
T2 construct: made in house; host or cells: insect cells co-infected with baculovirus vectors
Procedure, shortened: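 Radiometric filter-binding read-out: Rb residues 386-928 phosphorylated by 5 nM CDK4/cyclin D3(1-264) from baculovirus-infected insect cells, 25 μM ATP, HEPES pH 7.4, 30 °C. Run 20 min, or 60 min for tight-binding inhibitors. Screening at 30 nM theoretical compound; apparent Ki by competitive-inhibition fitting.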

HCT-116 cell line = test: Inhibition of cell growth, MTT tetrazolium salt assay; format: cell-based; conditions: HCT-116, at 0.25 μM
Procedure, shortened: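 Growth inhibition was read as MTT-formazan absorbance at 540 nm, after 4 h with 0.2 mg/mL MTT. Before that, HCT-116 cells had been exposed 3–5 days at 37 °C to compounds in 0.5% (v/v) DMSO, added 4 h after plating. 50% and 90% inhibitory concentrations were taken from semi-log concentration–inhibition plots versus vehicle controls.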

T2 sequence (P11802 whole entry): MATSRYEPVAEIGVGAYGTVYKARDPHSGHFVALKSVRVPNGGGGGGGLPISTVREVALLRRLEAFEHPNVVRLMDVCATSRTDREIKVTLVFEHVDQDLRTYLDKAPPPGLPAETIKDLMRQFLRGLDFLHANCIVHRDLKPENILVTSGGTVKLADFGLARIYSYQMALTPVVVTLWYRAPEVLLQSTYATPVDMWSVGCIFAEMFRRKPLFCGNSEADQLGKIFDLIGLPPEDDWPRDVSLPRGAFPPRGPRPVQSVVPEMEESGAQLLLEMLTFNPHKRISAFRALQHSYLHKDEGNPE
T2 sequence (P30281 1-264 partner limits assumed): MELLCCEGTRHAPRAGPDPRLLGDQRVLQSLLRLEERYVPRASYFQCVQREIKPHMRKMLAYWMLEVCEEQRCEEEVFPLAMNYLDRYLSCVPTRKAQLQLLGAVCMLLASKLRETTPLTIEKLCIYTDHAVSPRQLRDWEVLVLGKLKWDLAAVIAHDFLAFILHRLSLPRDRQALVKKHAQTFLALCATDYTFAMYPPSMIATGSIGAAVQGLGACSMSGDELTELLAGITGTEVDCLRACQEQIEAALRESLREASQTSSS

Compound	CDK2 % Inhibition at 0.03 μM (CDK2/cyclin A) [%]	CDK4 % Inhibition at 0.03 μM (human CDK4/cyclin D3) [%]	HCT-116 % Inhibition at 0.25 μM (HCT-116 cell line) [%]	HCT-116 % Inhibition at 0.25 μM (HCT-116 cell line; 0.25 µM) [%]
NC(=O)c1cccc(NC(=O)c2ccc(Nc3nc(N)c(C(=O)c4c(F)cccc4F)s3)cc2)c1 [Example G6]	−1	10	47	–
Nc1nc(Nc2ccc(C(=O)Nc3ccccc3)cc2)sc1C(=O)c1c(F)cccc1F [Example G7]	4	5	80	–
Cc1ccc(NC(=O)c2ccc(Nc3nc(N)c(C(=O)c4c(F)cccc4F)s3)cc2)cc1Cl [Example G8]	−1	−5	50	–
CCCCN(CC#N)C(=O)c1ccc(Nc2nc(N)c(C(=O)c3c(F)cccc3F)s2)cc1 [Example G9]	−1	2	46	–
Nc1nc(Nc2ccc(C(=O)N3CCOCC3)cc2)sc1C(=O)c1c(F)cccc1F [Example G10]	−4	−2	51	–
CN(CCc1ccccc1)C(=O)c1ccc(Nc2nc(N)c(C(=O)c3c(F)cccc3F)s2)cc1 [Example G11]	−12	6	49	–
Nc1nc(Nc2ccc(C(=O)N3CCN(CCCO)CC3)cc2)sc1C(=O)c1c(F)cccc1F [Example G12]	−14	10	48	–
COCCN(C)C(=O)c1ccc(Nc2nc(N)c(C(=O)c3c(F)cccc3F)s2)cc1 [Example G13]	−16	0	44	–
COc1ccc(NC(=O)c2ccc(Nc3nc(N)c(C(=O)c4c(F)cccc4F)s3)cc2)cc1O [Example G14]	9	26	50	–
Cc1cccc(Cl)c1NC(=O)c1ccc(Nc2nc(N)c(C(=O)c3c(F)cccc3F)s2)cc1 [Example G15]	−12	4	46	–
CCOc1cccc(NC(=O)c2ccc(Nc3nc(N)c(C(=O)c4c(F)cccc4F)s3)cc2)c1 [Example G16]	−7	1	50	–
CN(CCO)C(=O)c1ccc(Nc2nc(N)c(C(=O)c3c(F)cccc3F)s2)cc1 [Example G17]	2	7	45	–
CC1CN(C(=O)c2ccc(Nc3nc(N)c(C(=O)c4c(F)cccc4F)s3)cc2)CC(C)O1 (stereo not drawn) [Example G18]	−10	4	41	–
COC(CN(C)C(=O)c1ccc(Nc2nc(N)c(C(=O)c3c(F)cccc3F)s2)cc1)OC [Example G19]	−7	4	43	–
CN(Cc1cccnc1)C(=O)c1ccc(Nc2nc(N)c(C(=O)c3c(F)cccc3F)s2)cc1 [Example G20]	10	9	50	–
C=CCN1CCN(C(=O)c2ccc(Nc3nc(N)c(C(=O)c4c(F)cccc4F)s3)cc2)CC1 [Example G21]	3	14	46	–
COc1ccc(C(F)(F)F)cc1NC(=O)c1ccc(Nc2nc(N)c(C(=O)c3c(F)cccc3F)s2)cc1 [Example G22]	2	−3	50	–
COc1ccccc1NC(=O)c1ccc(Nc2nc(N)c(C(=O)c3c(F)cccc3F)s2)cc1 [Example G23]	8	7	63	–
CCOC(=O)c1cccc(NC(=O)c2ccc(Nc3nc(N)c(C(=O)c4c(F)cccc4F)s3)cc2)c1 [Example G24]	7	11	58	–
CCN(CCO)C(=O)c1ccc(Nc2nc(N)c(C(=O)c3c(F)cccc3F)s2)cc1 [Example G25]	−16	10	52	–
Nc1nc(Nc2ccc(C(=O)N3CCSCC3)cc2)sc1C(=O)c1c(F)cccc1F [Example G26]	3	13	53	–
C=CCN(C)C(=O)c1ccc(Nc2nc(N)c(C(=O)c3c(F)cccc3F)s2)cc1 [Example G27]	−6	4	60	–
CCN(Cc1ccncc1)C(=O)c1ccc(Nc2nc(N)c(C(=O)c3c(F)cccc3F)s2)cc1 [Example G28]	1	19	66	–
CN(C)C1CCN(C(=O)c2ccc(Nc3nc(N)c(C(=O)c4c(F)cccc4F)s3)cc2)C1 (stereo not drawn) [Example G29]	4	32	–	55
Nc1nc(Nc2ccc(C(=O)Nc3ccc(-c4csnn4)cc3)cc2)sc1C(=O)c1c(F)cccc1F [Example G30]	5	5	82	–
CSc1ccccc1NC(=O)c1ccc(Nc2nc(N)c(C(=O)c3c(F)cccc3F)s2)cc1 [Example G31]	4	4	75	–
Nc1nc(Nc2ccc(C(=O)N3CCN(C(=O)c4ccco4)CC3)cc2)sc1C(=O)c1c(F)cccc1F [Example G32]	8	27	55	–
Nc1nc(Nc2ccc(C(=O)N3CCSC3)cc2)sc1C(=O)c1c(F)cccc1F [Example G33]	−3	10	54	–
